Measurements reported in US20040157930A1, “Histone deacetylase enzyme-inhibiting derivatives of hydroxamic acid as new cytokine synthesis-inhibiting anti-inflammatory drugs” (priority 2001, published 2004).
pIC50: −log10 of the molar value.

Assays:
[1] = system: IL-12 (p70); test: Inhibition of IL-12 production by cultured monocytes (ELISA); format: cell-based; details: nonadherent human monocytes
Protocol: Venous blood was obtained from consenting adults and separated over Ficoll-Hypaque. The PBMC fraction was washed and adjusted to five million cells per ml. […] The cells were stimulated with LPS, soluble OKT3, or cytokines, and after 24 or 48 h At 37° C. the supernatant was removed and frozen for cytokine assays. Monocytes were isolated by centrifugation over Percoll, washed, suspended in RPMI with 10% FCS, and aliquoted at 2 million cells per ml in Petriperm Teflon-coated culture dishes (Sigma). The ELISA for human IL-12 (p70) was purchased from Endogen (Woburn, Mass.).

[2] = system: DSS-induced colitis; test: Dextran-induced colitis; format: in vivo, C57BL/6 mice; details: for Complete clinical score: 0 (healthy) to 4; for Weight: in g; for Bleeding / Stool consistency as score: score 0-4; for Colon length: post mortem day 10
Protocol: Female, 8 week-old C57BL/6 mice (The Jackson Laboratories, Bar Habor, Me.) weighing 20-22 g were used in this study. The animals were housed in rooms at a controlled temperature and a 12 h day/night rhythm. They were fed standard mice chow pellets ad libitum, had free access to tap water supplied in bottles, and were acclimatized to the conditions at least seven days before they were used in experiments. Mice were killed by cervical dislocation under isoflurane anesthesia (Fort Dodge, Iowa City, Iowa).
; molecular weight 40 kDa; ICN, Aurora, Ohio) dissolved in sterile, distilled water ad libitum from day one to five followed by a five day observation period. […]. Body weights, occult blood or the presence of gross blood per rectum, and stool consistency were determined daily. Two investigators blinded to the protocol assessed the clinical score (table 1). Weight loss <1% compared to day 1 was counted as 0 points, weight loss of 1 to <5% as 1 point, 5 to <9.9% as 2 points, 10 to 20% as 3 points and more than 20% as 4 points. […] Bleeding was scored 0 points for no blood in hemoccult, 2 points for positive hemoccult, and 4 points for gross bleeding. These scores (body weight, stool consistency, rectal bleeding) were added and divided by 3 resulting in a total clinical score ranging from 0 (healthy) to 4 (maximal activity of colitis).
Post mortem (on day 10), the entire colon was removed from the caecum to the anus and the colon length was measured as an indirect marker of inflammation.

[3] = system: mouse peritoneal macrophages; test: Nitric oxide production from mouse peritoneal macrophages (Griess); format: cell-based, C57BLy6 mice; details: TNF-α plus IFN-γ stimulation, 24 h
Protocol: C57BLy6 mice were injected i.p. with 1 ml of sterile thioglycolate broth and killed after 5 days, and macrophages were isolated using instillation of 10 ml of ice-cold PBS into the peritoneal cavity. The cells were centrifuged (350×g) and 3 ml of erythrocyte lysing reagent (PharMingen) was added for 10 min.
Seven milliliters of DMEM containing 5% FCS was added and the cells were centrifuged at 4° C. The cells were resuspended in DMEM at 1 million per ml and 0.5 ml were added to wells of a 48-well plate. […] After 24 h, NO levels in the supernatant were determined using the Griess reagent as described in Am.J.Physiol.Cell Physiol. (2001), 280, C441-C450.

[4] = system: IFNγ; test: IFNγ synthesis by PBMCs stimulated with IL-12 and IL-18 (ELISA); format: cell-based; details: Homo sapiens; PBMC, IL-12 10 ng/ml + IL-18 20 ng/ml, 48 h; read-out: IFNγ (from IL-12 + IL-18) IC50
Protocol: Cytokine IFNγ is produced by the T lymphocytes following their stimulation by pro-inflammatory cytokines, especially IL-12 and IL-18 (Dinarello C. A. and Moldawer L. L. Proinflammatory and anti-inflammatory cytokines in rheumatoid arthritis. A primer for clinicians. 2nd Edition, Amgen Inc., 2000).
At the end, the cells were stimulated for 48 hours in the presence of the compound by simultaneous addition of recombinant IL-12 (10 ng/ml) and recombinant IL-18 (20 ng/ml). The quantity of IFNγ produced was determined with a commercial ELISA assay.

[5] = DSS + SAHA 10 mg/kg p.o. daily, day 1
[6] = DSS + SAHA 10 mg/kg p.o. daily, day 2
[7] = DSS + SAHA 10 mg/kg p.o. daily, day 3
[8] = DSS + SAHA 10 mg/kg p.o. daily, day 4
[9] = DSS + SAHA 10 mg/kg p.o. daily, day 5
[10] = DSS + SAHA 10 mg/kg p.o. daily, day 6
[11] = DSS + SAHA 10 mg/kg p.o. daily, day 7
[12] = DSS + SAHA 10 mg/kg p.o. daily, day 8
[13] = DSS + SAHA 10 mg/kg p.o. daily, day 9
[14] = DSS + SAHA 10 mg/kg p.o. daily, day 10
[15] = SAHA 10 mg/kg p.o. daily without DSS, day 1
[16] = SAHA 10 mg/kg p.o. daily without DSS, day 2
[17] = SAHA 10 mg/kg p.o. daily without DSS, day 3
[18] = SAHA 10 mg/kg p.o. daily without DSS, day 4
[19] = SAHA 10 mg/kg p.o. daily without DSS, day 5
[20] = SAHA 10 mg/kg p.o. daily without DSS, day 6
[21] = SAHA 10 mg/kg p.o. daily without DSS, day 7
[22] = SAHA 10 mg/kg p.o. daily without DSS, day 8
[23] = SAHA 10 mg/kg p.o. daily without DSS, day 9
[24] = SAHA 10 mg/kg p.o. daily without DSS, day 10

## O=C(CCCCCCC(=O)Nc1ccccc1)NO [SAHA, suberoylanilide hydroxamic acid]
[1]; 200 nM
  reduction in LPS/IFN-γ-induced IL-12 production: 55%
[1]; 400 nM
  reduction in LPS/IFN-γ-induced IL-12 production: 86%
[2]; [5]
  Complete clinical score: 0.0 ± 0.0
  Weight: 19.1 ± 0.2
  Bleeding: 0.0 ± 0.0
  Stool consistency as score: 0.0 ± 0.0
[2]; [6]
  Complete clinical score: 0.0 ± 0.0
  Weight: 18.8 ± 0.2
  Bleeding: 0.0 ± 0.0
  Stool consistency as score: 0.0 ± 0.0
[2]; [7]
  Complete clinical score: 0.1 ± 0.1
  Weight: 19.1 ± 0.3
  Bleeding: 0.0 ± 0.0
  Stool consistency as score: 0.0 ± 0.0
[2]; [8]
  Complete clinical score: 0.2 ± 0.1
  Weight: 18.4 ± 0.4
  Bleeding: 0.0 ± 0.0
  Stool consistency as score: 0.0 ± 0.0
[2]; [9]
  Complete clinical score: 0.7 + 0.3
  Weight: 18.4 ± 0.4
  Bleeding: 1.2 ± 0.4
  Stool consistency as score: 0.8 ± 0.4
[2]; [10]
  Complete clinical score: 1.3 ± 0.3
  Weight: 18.7 ± 0.3
  Bleeding: 2.4 ± 0.4
  Stool consistency as score: 0.8 ± 0.4
[2]; [11]
  Complete clinical score: 1.5 ± 0.1
  Weight: 18.0 ± 0.4
  Bleeding: 2.0 ± 0.0
  Stool consistency as score: 2.0 ± 0.0
[2]; [12]
  Complete clinical score: 1.9 ± 0.1
  Weight: 16.9 ± 0.3
  Bleeding: 1.6 ± 0.4
  Stool consistency as score: 2.0 ± 0.0
[2]; [13]
  Complete clinical score: 1.5 ± 0.4
  Weight: 16.6 ± 0.4
  Bleeding: 1.2 ± 0.4
  Stool consistency as score: 1.2 ± 0.4
[2]; [14]
  Complete clinical score: 1.3 ± 0.4
  Weight: 16.6 ± 0.4
  Bleeding: 0.8 ± 0.4
  Stool consistency as score: 1.2 ± 0.4
[2]; DSS + SAHA 10 mg/kg p.o. daily, DSS + water 7.6 ± 0.2
  Colon length: 9.2 ± 0.2 cm
[2]; [15]
  Complete clinical score: 0.0 ± 0.0
  Weight: 18.9 ± 0.3
  Bleeding: 0.0 ± 0.0
  Stool consistency as score: 0.0 ± 0.0
[2]; [16]
  Complete clinical score: 0.0 ± 0.0
  Weight: 18.8 ± 0.4
  Bleeding: 0.0 ± 0.0
  Stool consistency as score: 0.0 ± 0.0
[2]; [17]
  Complete clinical score: 0.0 ± 0.0
  Weight: 18.9 ± 0.2
  Bleeding: 0.0 ± 0.0
  Stool consistency as score: 0.0 ± 0.0
[2]; [18]
  Complete clinical score: 0.0 ± 0.0
  Weight: 18.9 ± 0.3
  Bleeding: 0.0 ± 0.0
  Stool consistency as score: 0.0 ± 0.0
[2]; [19]
  Complete clinical score: 0.0 ± 0.0
  Weight: 19.0 ± 0.1
  Bleeding: 0.0 ± 0.0
  Stool consistency as score: 0.0 ± 0.0
[2]; [20]
  Complete clinical score: 0.0 ± 0.0
  Weight: 19.0 ± 0.3
  Bleeding: 0.0 ± 0.0
  Stool consistency as score: 0.0 ± 0.0
[2]; [21]
  Complete clinical score: 0.0 ± 0.0
  Weight: 18.9 ± 0.1
  Bleeding: 0.0 ± 0.0
  Stool consistency as score: 0.0 ± 0.0
[2]; [22]
  Complete clinical score: 0.0 ± 0.0
  Weight: 19.0 ± 0.3
  Bleeding: 0.0 ± 0.0
  Stool consistency as score: 0.0 ± 0.0
[2]; [23]
  Complete clinical score: 0.0 ± 0.1
  Weight: 19.1 ± 0.1
  Bleeding: 0.0 ± 0.0
  Stool consistency as score: 0.0 ± 0.0
[2]; [24]
  Complete clinical score: 0.0 ± 0.0
  Weight: 19.1 ± 0.2
  Bleeding: 0.0 ± 0.0
  Stool consistency as score: 0.0 ± 0.0
[2]; SAHA 10 mg/kg p.o. daily without DSS, water 10.5 ± 0.3
  Colon length: 10.1 ± 0.2 cm
[2]; SAHA 10 mg/kg p.o. daily, days 1 to 10
  effect on dextran-induced colitis (overall conclusion): effectively counteracts dextran-induced colitis
[3]; 200 nM
  reduction of NO production: 50%
[3]; 400 nM
  reduction of NO production: 80%
[3]; 800 nM
  reduction of NO production: 85%
[4]
  pIC50: 6.13
